# Measurements taken from patent publication US20220281848A1, “PYRAZOLE-SUBSTITUTED PYRROLIDINONES AS HERBICIDES” (FMC Corporation, priority 2019, published 2022).
# Assays:
# plants = experiment: Test D post-emergence, other plants of Tables D2 and D4; assay type: in vivo; settings: post-emergence
# In short: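 Damage was rated visually from 0 (none) to 100 (total), at 20 DAA for pre-emergence and 15 d for post-emergence. Plants grew from safener-treated seed in a glasshouse at 24/18° C. or 20/16° C. day/night, 65% humidity, watered twice daily.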
# wheat = experiment: Test D post-emergence, wheat seed treated with a herbicide safener; assay type: in vivo; settings: "Cereals" Postemergent
# In short: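 Safener-seed-treated maize and wheat were sprayed with an emulsifiable formulation diluted in 0.2% v/v adjuvant solution, one day after sowing (pre-emergence) or after about 12 days (post-emergence). Plants were grown in a glasshouse at 24/18 or 20/16 °C with 16 h light; damage was scored 0–100 at 20 DAA (pre) or 15 d (post).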
smiles,measurement,setting,value
CN1CC(c2cc(C(F)(F)F)n(C)n2)C(C(=O)Nc2cccc(F)n2)C1=O (racemic) [Compound 24],"damage to plant (100=total damage to plant; 0=no damage to plant), ABUTH","plants; rate 250, evaluated after 15 d",0
same,"damage to plant (100=total damage to plant; 0=no damage to plant), ABUTH","plants; rate 500, evaluated after 15 d",10
same,"damage to plant (100=total damage to plant; 0=no damage to plant), AMARE","plants; rate 130, evaluated after 15 d",0
same,"damage to plant (100=total damage to plant; 0=no damage to plant), AMARE","plants; rate 250, evaluated after 15 d",0
same,"damage to plant (100=total damage to plant; 0=no damage to plant), AMARE","plants; rate 500, evaluated after 15 d",0
same,"damage to plant (100=total damage to plant; 0=no damage to plant), BIDPI","plants; rate 130, evaluated after 15 d",0
same,"damage to plant (100=total damage to plant; 0=no damage to plant), BIDPI","plants; rate 250, evaluated after 15 d",0
same,"damage to plant (100=total damage to plant; 0=no damage to plant), BIDPI","plants; rate 500, evaluated after 15 d",0
same,"damage to plant (100=total damage to plant; 0=no damage to plant), BRAPL","plants; rate 130, evaluated after 15 d",0
same,"damage to plant (100=total damage to plant; 0=no damage to plant), BRAPL","plants; rate 250, evaluated after 15 d",40
same,"damage to plant (100=total damage to plant; 0=no damage to plant), BRAPL","plants; rate 500, evaluated after 15 d",50
same,"damage to plant (100=total damage to plant; 0=no damage to plant), CYPES","plants; rate 130, evaluated after 15 d",0
same,"damage to plant (100=total damage to plant; 0=no damage to plant), CYPES","plants; rate 250, evaluated after 15 d",0
same,"damage to plant (100=total damage to plant; 0=no damage to plant), CYPES","plants; rate 500, evaluated after 15 d",10
same,"damage to plant (100=total damage to plant; 0=no damage to plant), DIGSA","plants; rate 130, evaluated after 15 d",0
same,"damage to plant (100=total damage to plant; 0=no damage to plant), DIGSA","plants; rate 250, evaluated after 15 d",0
same,"damage to plant (100=total damage to plant; 0=no damage to plant), DIGSA","plants; rate 500, evaluated after 15 d",0
same,"damage to plant (100=total damage to plant; 0=no damage to plant), ECHCG","plants; rate 130, evaluated after 15 d",0
same,"damage to plant (100=total damage to plant; 0=no damage to plant), ECHCG","plants; rate 250, evaluated after 15 d",0
same,"damage to plant (100=total damage to plant; 0=no damage to plant), ECHCG","plants; rate 500, evaluated after 15 d",0
same,"damage to plant (100=total damage to plant; 0=no damage to plant), ELEIN","plants; rate 130, evaluated after 15 d",0
same,"damage to plant (100=total damage to plant; 0=no damage to plant), ELEIN","plants; rate 250, evaluated after 15 d",0
same,"damage to plant (100=total damage to plant; 0=no damage to plant), ELEIN","plants; rate 500, evaluated after 15 d",0
same,"damage to plant (100=total damage to plant; 0=no damage to plant), EPHHL","plants; rate 130, evaluated after 15 d",0
same,"damage to plant (100=total damage to plant; 0=no damage to plant), EPHHL","plants; rate 250, evaluated after 15 d",0
same,"damage to plant (100=total damage to plant; 0=no damage to plant), EPHHL","plants; rate 500, evaluated after 15 d",20
same,"damage to plant (100=total damage to plant; 0=no damage to plant), GLXMA","plants; rate 130, evaluated after 15 d",0
same,"damage to plant (100=total damage to plant; 0=no damage to plant), GLXMA","plants; rate 250, evaluated after 15 d",0
same,"damage to plant (100=total damage to plant; 0=no damage to plant), GLXMA","plants; rate 500, evaluated after 15 d",10
same,"damage to plant (100=total damage to plant; 0=no damage to plant), IPOHE","plants; rate 130, evaluated after 15 d",0
same,"damage to plant (100=total damage to plant; 0=no damage to plant), IPOHE","plants; rate 250, evaluated after 15 d",0
same,"damage to plant (100=total damage to plant; 0=no damage to plant), IPOHE","plants; rate 500, evaluated after 15 d",10
same,"damage to plant (100=total damage to plant; 0=no damage to plant), ORYSA","plants; rate 130, evaluated after 15 d",0
same,"damage to plant (100=total damage to plant; 0=no damage to plant), ORYSA","plants; rate 250, evaluated after 15 d",0
same,"damage to plant (100=total damage to plant; 0=no damage to plant), ORYSA","plants; rate 500, evaluated after 15 d",10
same,"damage to plant (100=total damage to plant; 0=no damage to plant), PANMI","plants; rate 130, evaluated after 15 d",0
same,"damage to plant (100=total damage to plant; 0=no damage to plant), PANMI","plants; rate 250, evaluated after 15 d",0
same,"damage to plant (100=total damage to plant; 0=no damage to plant), PANMI","plants; rate 500, evaluated after 15 d",10
same,"damage to plant (100=total damage to plant; 0=no damage to plant), SETFA","plants; rate 130, evaluated after 15 d",0
same,"damage to plant (100=total damage to plant; 0=no damage to plant), SETFA","plants; rate 250, evaluated after 15 d",0
same,"damage to plant (100=total damage to plant; 0=no damage to plant), SETFA","plants; rate 500, evaluated after 15 d",10
same,"damage to plant (100=total damage to plant; 0=no damage to plant), SORVU","plants; rate 130, evaluated after 15 d",0
same,"damage to plant (100=total damage to plant; 0=no damage to plant), SORVU","plants; rate 250, evaluated after 15 d",0
same,"damage to plant (100=total damage to plant; 0=no damage to plant), SORVU","plants; rate 500, evaluated after 15 d",0
same,TRZAW damage rating (100=total damage to plant; 0=no damage to plant),"wheat; Rates 130, evaluated after 15 d",0
same,TRZAW damage rating (100=total damage to plant; 0=no damage to plant),"wheat; Rates 250, evaluated after 15 d",0
same,TRZAW damage rating (100=total damage to plant; 0=no damage to plant),"wheat; Rates 500, evaluated after 15 d",0
